Results: US20070254843A1, “Methods for treating bone associated diseases by the use of methionine aminopeptidase-2 inhibitors” (Praecis Pharmaceuticals Incorporated, priority 2006, published 2007)

Experiments:
MetAP-2 = target: T1, MetAP-2 (Rattus norvegicus, UniProt P38062); assay: MetAP-2 pharmacodynamic assay in wbc lysates; assay type: in vivo; details: po, PG-PS arthritis rats, read-out: MetAP-2 in wbc inhibited relative to vehicle-treated group
T1 construct: wbc from animals of each study group were pooled and cell lysates were prepared as previously described; from tissue; host or cells: white blood cells (wbc) of female Lewis rats, pooled per study group and lysed
Description: MetAP-2 pharmacodynamic assay. The MetAP-2 assay measures the amount of uninhibited MetAP-2 in cells or tissues which has not been derivitized by prior treatment with the MetAP-2 inhibitor (Bernier (2004) Proc. Natl. Acad. Sci. USA 101: 10768-10773 and Bernier (2005) J. Cell. Biochem. 95: 1191-1203). Briefly, wbc from animals of each study group were pooled and cell lysates were prepared as previously described (Bernier (2004) Proc. Natl. Acad. Sci. USA 101: 10768-10773 and Bernier (2005) J. Cell. Biochem. 95: 1191-1203). 10 μg to 20 μg of wbc protein was incubated with a biotinylated analog of the MetAP-2 inhibitor which covalently binds to the catalytic site of MetAP-2. The biotinylated MetAP-2-inhibitor complex was captured on a plate with immobilized streptavidin (Pierce), and detected with the MetAP-2 antibody CM33 (0.5 μg/ml), followed by horseradish peroxidase-conjugated goat anti-rabbit IgG secondary antibody. The amount of uninhibited MetAP-2 was determined by measuring the absorption at 450 nm using a Labsystems Multiskan plate spectrophotometer. Human recombinant MetAP-2 (Mediomics), pre-bound to the biotinylated MetAP-2 inhibitor, was used to generate the standard curve. The detection limit of this assay was 0.47 ng MetAP-2 protein/mg wbc protein.
Since the MetAP-2 inhibitor had the ability to inhibit multiple cell types critical for pathogenesis of the bone associated disease, RA, in vitro, it was hypothesized that the observations from the in vitro studies (Example 1) would translate into protection from disease in animals in the PG-PS model of arthritis. The progression of disease in this model follows a biphasic mode, with an early acute, predominantly neutrophil-driven phase which persists to days 6-7, followed by a chronic, T cell dependent phase (evident around day 12), which is characterized by chronic inflammation and erosive synovitis (Palombella (1998) Proc. Natl. Acad. Sci. USA 95:15671-15676). Therapeutic dosing of animals administered the MetAP-2 inhibitor orally (p.o.) at 1, 5 and 10 mg/kg, every other day (qod), or vehicle started at day 15 after the chronic destructive phase of the disease was established and terminated on day 31. […] The amount of uninhibited MetAP-2 in wbc of animals from all treatment groups was measured after conclusion of the study, using the MetAP-2 pharmacodynamic assay (Bernier (2004) Proc. Natl. Acad. Sci. USA 101: 10768-10773 and Bernier (2005) J. Cell. Biochem. 95: 1191-1203). […]

HUVEC = details: 100 nM; cited from earlier work
PG-PS-induced arthritis = assay: Microfocal computed tomography of hind joints in rat PG-PS arthritis model; assay type: in vivo
Description: Microfocal computed tomography. All specimens were scanned on a Scanco Medical AG μCT 40 system. Images were obtained with an isotropic voxel resolution of 20 microns. A matrix size of 1024×1024 with 1000 projections was utilized for all scans. A total of 1836 slices were scanned for each specimen (the number of slices scanned was determined by the length of the scan needed to cover the entire ankle including the distal tibia). The scan time per specimen was approximately 2.6 hours. The images were then volume rendered using a fixed threshold (at two different thresholds: 255 and 140). The total bone volume and BMD were calculated over the same regions of all the specimens. Micro-CT was performed at Scanco USA, Incorporated.
Finally, the activity of the MetAP-2 inhibitor on the structural preservation of hind joints in rats with established disease was investigated.
The ankles including the distal tibia were scanned using a Scanco Medical AG μCT 40 system (threshold: 255), and the total bone volume and BMD were calculated over the same regions of all specimens.

[1] = PG-PS arthritis, 10 mg/kg, threshold 255

T1 sequence (P38062 whole entry): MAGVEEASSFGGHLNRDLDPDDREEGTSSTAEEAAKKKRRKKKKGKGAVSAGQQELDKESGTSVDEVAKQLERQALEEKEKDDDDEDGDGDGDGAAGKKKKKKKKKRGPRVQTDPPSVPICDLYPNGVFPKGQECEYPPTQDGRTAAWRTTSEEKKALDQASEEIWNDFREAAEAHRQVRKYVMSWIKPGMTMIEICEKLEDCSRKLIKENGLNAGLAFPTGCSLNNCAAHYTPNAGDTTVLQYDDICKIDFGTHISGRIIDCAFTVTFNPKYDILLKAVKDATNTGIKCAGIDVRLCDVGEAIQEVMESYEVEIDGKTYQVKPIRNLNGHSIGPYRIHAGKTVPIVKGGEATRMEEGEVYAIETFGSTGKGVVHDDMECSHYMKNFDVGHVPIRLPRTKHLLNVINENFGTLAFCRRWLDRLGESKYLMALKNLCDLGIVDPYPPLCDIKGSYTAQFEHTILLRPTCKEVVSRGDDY

SMILES: CO[C@@H]1[C@H](OC(=O)N[C@@H](C(N)=O)C(C)C)CC[C@]2(CO2)[C@H]1[C@@]1(C)O[C@@H]1CC=C(C)C [MetAP-2 inhibitor, (1-Carbamoyl-2-methyl-propyl)-carbamic acid-(3R,4S,5S,6R)-5-methoxy-4-[(2R,3R)-2-methyl-3-(3-methyl-but-2-enyl)-oxiranyl]-1-oxa-spiro[2,5]oct-6-yl ester]
- inhibition at 1 mg/kg (MetAP-2; 1 mg/kg p.o. qod): ≥ 60%
- inhibition at 5 mg/kg (MetAP-2; 5 mg/kg p.o. qod): ≥ 95%
- inhibition at 10 mg/kg (MetAP-2; 10 mg/kg p.o. qod): ≥ 95%
- induction of apoptosis in HUVEC (HUVEC): did not induce apoptosis
- structural integrity of hind joints, three-dimensional micro-CT images (PG-PS-induced arthritis; 10 mg/kg p.o. qod, versus vehicle): protected the structural integrity of the joints and prevented focal bone erosions
- BMD (PG-PS-induced arthritis; [1]): 1087 ± 17.44 mg HA/ccm
- Bone Volume (Vox-BV) (PG-PS-induced arthritis; [1]): 213.8 ± 5.23
